# Measurements from patent publication US9783521B2, “PDE10 inhibitors and related compositions and methods” (Omeros Corporation, priority 2008, dated 2017).
# pIC50: −log10 of the molar value.
# Target: T1, recombinant human PDE 10A1 (Homo sapiens, UniProt Q9Y233)
# T1 construct: made in house; host or cells: Sf9 insect cells, baculoviral system
# Test: PDE10 biochemical assay (two-step Thompson and Appleman method or SPA)
# Details: not given
# Method: After the appropriate incubation time, the reaction is terminated by heating. The mixture is then subjected to treatment with snake venom phosphatase. […] IC50 values can be calculated by performing the experiment at several concentrations using standard graphical means. A detailed description of the actual technique used for IC50 assays as set forth in following Examples.
# The phosphodiesterase (PDE) assay was performed using recombinant human PDE 1A3, 2A3, 3 catalytic region, 4 catalytic region, 5 catalytic region, 7A, 8A, 9A2, 10A1 and 11A1 enzymes expressed in a baculoviral system using Sf9 cells. PDE activity was measured using a modification of the two-step method of Thompson and Appleman described above which was adapted for 96 well plate format. […] Reactions were initiated with enzyme and incubated with (^3H)-substrate and substance for 20 minutes at 30° C. The reaction was terminated by denaturing the enzyme (heating the reaction to 70° C. for 2 minutes). The reaction was then cooled at 4° C. for 10 minutes before the addition of snake venom (Crotalus atrox, 0.2 mg/ml) for 10 minutes at 30° C., thus allowing non-specific hydrolysis of the tritiated substrate. Separation of the remaining unhydrolysed cyclic nucleotide was achieved by a batch binding of the mixture to activated Dowex (200 μl) anion exchange resin. The anion exchange resin bound the charged nucleotides, leaving only hydrolysed (^3H) substrate in the soluble fraction. The soluble fraction (50 μl) was then added to microscint-20 (200 μl) and counted on a Top Count Plate reader. Radioactivity units were plotted against inhibitor concentration and IC50 values obtained using Graph Pad Prism software.
# Alternatively, phosphodiesterase activity was measured by scintillation proximity assay (SPA) with [^3H]-cGMP as substrate. Purified PDE10 was diluted and stored in 25 mM Tris-Cl (pH 8.0)/100 mM NaCl/0.05% Tween 20/50% glycerol/3 mM DTT. Assays contained (final concentrations): 50 mM Tris-Cl (pH 7.5)/8.3 mM MgCl2/1.7 mM EGTA/0.5 mg/ml BSA/5% DMSO and 2 ng PDE10 in a final volume of 0.1 mL. Inhibition was evaluated at 8 concentrations in duplicate. Reactions were initiated by addition of enzyme and were terminated after 20 minutes at 30° C. by the addition of 50 μl of SPA beads containing Zn^++. The mixture was shaken, allowed to settle for 3 hours, and counted in a Wallac plate counter. Results (net cpm) were fitted to a four parameter logistic model using Excel Solver®.
# T1 sequence (Q9Y233 1-779 isoform Q9Y233-1): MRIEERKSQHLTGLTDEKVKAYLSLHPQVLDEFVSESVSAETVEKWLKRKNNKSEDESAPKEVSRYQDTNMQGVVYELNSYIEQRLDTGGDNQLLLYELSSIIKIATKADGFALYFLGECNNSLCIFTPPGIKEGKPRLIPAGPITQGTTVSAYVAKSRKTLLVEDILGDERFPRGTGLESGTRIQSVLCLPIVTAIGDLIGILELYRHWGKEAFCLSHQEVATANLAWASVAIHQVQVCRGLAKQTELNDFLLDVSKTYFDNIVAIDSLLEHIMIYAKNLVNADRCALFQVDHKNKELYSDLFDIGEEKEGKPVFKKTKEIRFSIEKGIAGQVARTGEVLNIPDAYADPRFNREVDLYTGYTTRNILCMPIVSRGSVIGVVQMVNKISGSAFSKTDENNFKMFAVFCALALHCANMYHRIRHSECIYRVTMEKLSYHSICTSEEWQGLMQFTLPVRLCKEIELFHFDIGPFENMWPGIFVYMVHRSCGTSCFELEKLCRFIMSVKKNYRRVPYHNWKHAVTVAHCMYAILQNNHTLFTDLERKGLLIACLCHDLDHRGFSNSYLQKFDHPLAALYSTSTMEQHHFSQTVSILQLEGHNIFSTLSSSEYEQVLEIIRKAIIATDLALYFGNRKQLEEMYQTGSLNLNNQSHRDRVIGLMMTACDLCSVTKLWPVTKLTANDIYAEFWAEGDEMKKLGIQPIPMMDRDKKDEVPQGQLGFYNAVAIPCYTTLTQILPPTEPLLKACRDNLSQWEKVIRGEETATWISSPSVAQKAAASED
row,SMILES,pIC50
1,CCOc1cc(/C=N/NC(=O)C(OC)c2ccc(Cl)cc2)ccc1OC (stereo not drawn) [Compound 12-7],≥ 6.00
2,"COc1ccc(/C=N/N(C)C(=O)C(OC)c2ccccc2)cc1OC (stereo not drawn) [Compound 12-70, (E)-N′-(3,4-Dimethoxybenzylidene)-2-methoxy-N-methyl-2-phenylacetohydrazide]",≥ 6.00

# Same assay, conditions: PDE10 inhibition; read-out: IC50
row,SMILES,pIC50
1,CCOC(C(=O)N/N=C/c1cc(Cl)c(OC)c(OC)c1)c1ccc2c(c1)OCCN2C (stereo not drawn) [Compound 12-85],≥ 6.00
2,COc1cc(Cl)c(/C=N/NC(=O)C(OC)c2ccc3c(c2)OCCO3)cc1OC (stereo not drawn) [Compound 12-83],≥ 6.00
3,COc1ccc(/C=N/NC(=O)Cc2ccc(OC)c(OC)c2)cc1OC [Compound 12-90],≥ 6.00
4,COc1cc(/C=N/NC(=O)C(OC)c2ccc(F)cc2)cc(OC)c1Br (stereo not drawn) [Compound 12-1],≥ 6.00
5,COc1ccc(/C=N/NC(=O)C(OC)c2ccc(-n3cccn3)cc2)cc1OC (stereo not drawn) [Compound 12-155],≥ 6.00
6,COc1cc(/C=N/NC(=O)C(OC)c2ccc(Cl)cc2)cc(OC)c1OC (stereo not drawn) [Compound 12-15],≥ 6.00
7,"COc1ccc(/C=N/NC(=O)C(c2ccccc2)C(C)C)cc1OC (stereo not drawn) [Compound 9-1, (E)-N′-(3,4-Dimethoxybenzylidene)-3-methyl-2-phenylbutanehydrazide]",≥ 6.00
8,COc1cc(/C=N/NC(=O)C(OCCN(C)C)c2ccc3c(c2)OCO3)cc(OC)c1Br (stereo not drawn) [Compound 12-109],≥ 6.00
9,"COc1cc(/C=N/N=C(\OC(=O)C(C)(C)C)C(OC)c2cccc3ccccc23)cc(OC)c1OC (stereo not drawn) [Compound 5-1, (1Z, N′E)-2-Methoxy-2-(naphthalen-1-yl)-N′-(3,4,5-trimethoxybenzylidene)acetohydrazonic pivalic anhydride]",≥ 6.00
10,COCCOC(C(=O)N/N=C/c1cc(OC)c(OC)c(OC)c1)c1ccc2ccccc2c1 (stereo not drawn) [Compound 12-45],≥ 6.00
11,COc1cc(/C=N/NC(=O)C(OC)c2ccc(N3CCCC3)cc2)cc(OC)c1Cl (stereo not drawn) [Compound 12-126],≥ 6.00
12,COc1cc(/C=N/NC(=O)Cc2ccccc2)cc(OC)c1OC [Compound 12-89],≥ 6.00
13,COc1cc(/C(C)=N/NC(=O)C(OC)c2ccc(-n3cccn3)cc2)cc(OC)c1OC (stereo not drawn) [Compound 12-144],≥ 6.00
14,COc1cc(/C=N/NC(=O)C(OCCN(C)C)c2ccc3ccccc3c2)cc(OC)c1Br (stereo not drawn) [Compound 12-123],≥ 6.00
15,"COc1cc(/C=N/NC(=O)C(OC)c2cc3ccccc3s2)cc(OC)c1OC (stereo not drawn) [Compound 8-1, (E)-2-(Benzo[b]thiophen-2-yl)-2-methoxy-N′-(3,4,5-trimethoxybenzylidene)acetohydrazide]",≥ 6.00
16,"COc1cc(/C=N/NC(=O)C(OC)c2cccc3ncccc23)cc(OC)c1OC (stereo not drawn) [Compound 6-1, (E)-2-methoxy-2-(quinolin-5-yl)-N′-(3,4,5-trimethoxybenzylidene)acetohydrazide]",≥ 6.00
17,COc1ccc(/C=N/NC(=O)C(OC)c2ccc3ccccc3c2)cc1OC(F)F (stereo not drawn) [Compound 12-16],≥ 6.00
18,COc1ccc(/C=N/NC(=O)C(OC)c2ccc(Cl)cc2)cc1OC (stereo not drawn) [Compound 12-10],≥ 6.00
19,COc1cc(/C=N/NC(=O)C(OC)c2ccnc3ccccc23)cc(Br)c1OC (stereo not drawn) [Compound 12-58],≥ 6.00
20,COc1cc(/C=N/NC(=O)Cc2ccc(N3CCOCC3)cc2)cc(OC)c1Br [Compound 12-139],≥ 6.00

row,SMILES,pIC50
1,CCOC(C(=O)N/N=C/c1cc(OC)c(OC)c(OC)c1)c1cccc2c1OCCO2 (stereo not drawn) [Compound 12-130],≥ 6.00
2,COc1cc(/C=N/NC(=O)C(OC)c2ccccc2)ccc1C (stereo not drawn) [Compound 12-20],≥ 6.00
3,CCOC(C(=O)N/N=C/c1cc(OC)c(Br)c(OC)c1)c1cccc2c1OCCO2 (stereo not drawn) [Compound 12-131],≥ 6.00
4,COc1cc(/C=N/NC(=O)C(OC)c2ccc(Cl)cc2)ccc1C (stereo not drawn) [Compound 12-8],≥ 6.00
5,"COc1cc(/C=N/NC(=O)C(c2ccccc2)c2ccccc2)cc(OC)c1OC [Compound 3-1, (E)-2,2-Diphenyl-N′-(3,4,5-trimethoxybenzylidene)acetohydrazide]",≥ 6.00
6,CCOC(C(=O)N/N=C/c1cc(OC)c(Br)c(OC)c1)c1ccc2c(c1)OCCN2C (stereo not drawn) [Compound 12-84],≥ 6.00
7,COc1cc(/C=N/NC(=O)C(OC)c2ccccc2)cc(OC)c1O (stereo not drawn) [Compound 12-24],≥ 6.00
8,"COc1cc(/C=N/NC(=O)C(OC)c2ccc3ccccc3c2)cc(OC)c1OC (stereo not drawn) [Compound 1-1, (E)-2-Methoxy-2-(naphthalen-2-yl)-N′-(3,4,5-trimethoxybenzylidene)acetohydrazide]",≥ 6.00
9,"COc1cc(/C=N/N(CC(F)(F)F)C(=O)C(OC)c2ccc(-n3cccn3)cc2)cc(OC)c1Br (stereo not drawn) [Compound 11-1, (E)-2-(4-(1H-pyrazol-1-yl)phenyl)-N′-(4-bromo-3,5-dimethoxybenzylidene)-2-methoxy-N-(2,2,2-trifluoroethyl)acetohydrazide]",≥ 6.00
10,COc1ccc(C(OC)C(=O)N/N=C/c2ccc(OC)c(OC)c2)cc1 (stereo not drawn) [Compound 12-19],≥ 6.00
11,COc1cc(/C=N/NC(=O)C(OC)c2cnc3ccccc3c2)cc(OC)c1OC (stereo not drawn) [Compound 12-61],≥ 6.00
12,CCOC(C(=O)N/N=C/c1cc(Br)c(OC)c(OC)c1)c1ccc2c(c1)OCCO2 (stereo not drawn) [Compound 12-135],≥ 6.00
13,CCC(C(=O)N/N=C/c1ccc(OC)c(OC)c1)c1ccccc1 (stereo not drawn) [Compound 12-71],≥ 6.00
14,COc1cc(/C=N/NC(=O)C(OC)c2cccc(N(C)C)c2)cc(Br)c1OC (stereo not drawn) [Compound 12-122],≥ 6.00
15,CCOC(C(=O)N/N=C/c1cc(OC)c(Cl)c(OC)c1)c1cccc2ncccc12 (stereo not drawn) [Compound 12-119],≥ 6.00
16,COc1ccc(/C=N/NC(=O)C(OC)c2ccc3ccccc3c2)cc1OC1CCCC1 (stereo not drawn) [Compound 12-18],≥ 6.00
17,COc1cc(/C=N/NC(=O)C(OC)c2cc3ccccc3s2)cc(Cl)c1OC (stereo not drawn) [Compound 12-42],≥ 6.00
18,CCOc1cc(/C=N/NC(=O)C(OC)c2ccc(Cl)cc2)cc(Cl)c1OC (stereo not drawn) [Compound 12-5],≥ 6.00
19,CCOC(C(=O)N/N=C/c1cc(Br)c(OC)c(OC)c1)c1ccc2c(c1)OCCN2C (stereo not drawn) [Compound 12-86],≥ 6.00
20,COc1cc(/C=N/NC(=O)C(Oc2ccccc2)c2ccccc2)cc(OC)c1OC (stereo not drawn) [Compound 12-41],≥ 6.00

row,SMILES,pIC50
1,COCCOC(C(=O)N/N=C/c1cc(Br)c(OC)c(OC)c1)c1ccc2ccccc2c1 (stereo not drawn) [Compound 12-48],≥ 6.00
2,"COc1ccc(/C=N/NC(=O)C(SC)c2ccccc2)cc1OC (stereo not drawn) [Compound 4-1, (E)-N′-(3,4-Dimethoxybenzylidene)-2-(methylthio)-2-phenylacetohydrazide]",≥ 6.00
3,CCOc1ccc(/C=N/NC(=O)C(OC)c2ccccc2)cc1OCC (stereo not drawn) [Compound 12-26],≥ 6.00
4,COc1cc(/C=N/NC(=O)C(OC)c2ccc(F)cc2)cc(Br)c1OC (stereo not drawn) [Compound 12-3],≥ 6.00
5,COc1cc(/C=N/NC(=O)C(OC)c2ccc(Cl)cc2)cc(C#N)c1OC (stereo not drawn) [Compound 12-14],≥ 6.00
6,COc1cc(/C=N/NC(=O)C(OC)c2ccc(Cl)cc2)cc(Br)c1OC (stereo not drawn) [Compound 12-4],≥ 6.00
7,COc1cc(/C=N/NC(=O)C(OC)c2ccc(Cl)cc2)ccc1C#N (stereo not drawn) [Compound 12-22],≥ 6.00
8,COc1cc(/C(C)=N/NC(=O)C(OC)c2ccccc2)cc(OC)c1OC (stereo not drawn) [Compound 12-69],≥ 6.00
9,COc1cc(/C=N/NC(=O)C(OC)c2cccc(N(C)C)c2)cc(OC)c1O (stereo not drawn) [Compound 12-124],≥ 6.00
10,COc1cc(/C=N/NC(=O)C(OC)c2ccc(Cl)cc2)cc(Cl)c1OC (stereo not drawn) [Compound 12-6],≥ 6.00
11,CCOC(C(=O)N/N=C/c1cc(OC)cc(OC)c1)c1cccc2ncccc12 (stereo not drawn) [Compound 12-120],≥ 6.00
12,COc1cc(/C=N/NC(=O)C(OC)c2ccc(Cl)cc2)cc(OC)c1Br (stereo not drawn) [Compound 12-12],≥ 6.00
13,"COc1cc(/C=N/NC(=O)C(OC)c2ccc(N(C)C)cc2)cc(OC)c1OC (stereo not drawn) [Compound 7-1, (E)-2-(4-(Dimethylamino)phenyl)-2-methoxy-N′-(3,4,5-trimethoxybenzylidene)acetohydrazide]",≥ 6.00
14,CCOc1cc(/C=N/NC(=O)C(OC)c2ccc(Cl)cc2)cc(Br)c1OC (stereo not drawn) [Compound 12-2],≥ 6.00
15,COc1cc(/C=N/NC(=O)C(OC)c2ccc3c(c2)OCO3)cc(Br)c1OC (stereo not drawn) [Compound 12-116],≥ 6.00
16,CCOC(C(=O)N/N=C/c1cc(Br)c(OC)c(OC)c1)c1cccc2c1OCCO2 (stereo not drawn) [Compound 12-129],≥ 6.00
17,COCCOC(C(=O)N/N=C/c1cc(OC)c(Br)c(OC)c1)c1ccc2ccccc2c1 (stereo not drawn) [Compound 12-43],≥ 6.00
18,CCOC(C(=O)N/N=C/c1cc(OC)c(C)c(OC)c1)c1cccc2c1OCCO2 (stereo not drawn) [Compound 12-128],≥ 6.00
